Laboratory results from patent US6147097A, “Imidazole derivatives as anti-HIV agents” (Shionogi & Co., Ltd., priority 1994, dated 2000).
Values after ≈ are worked out from the molar mass of the structure shown. Like-named read-outs stand apart in the source and are kept apart here.

Experiments:
[1] = target: T1, purified recombinant HIV-1 reverse transcriptase (Human immunodeficiency virus type 1 group M subtype B, UniProt P04585); experiment: reverse transcriptase inhibition, poly(rA)/(dT) template primer, [3H]dTTP uptake; type: biochemical
T1 construct: purified recombinant HIV-1 reverse transcriptase; made in house; host or cells: Escherichia coli
Method: The reverse transcriptase activity of each of the compounds synthesized in Examples was assayed by the following procedures.
Using the purified recombinant HIV-1 reverse transcriptase RT, E.C. 2.7.7.49) obtained by expression in Escherichia Coli, a 96-well plate assay system was established for assaying a large number of samples. The RT inhibitory activity was determined as follows. To 11 μl of a solution of the test inhibitor in water or MSO was added 100 μl of a reaction mixture (0.1 unit/100 μl RT, 50 mM Tris-HCl pH 8.3, 150 mM KCl, 10 mM MgCl2, 3 mM dithiothreitol, 0.1% Nonidet P-40, 10 μg/ml. poly(rA) and 10 μg/ml (dT)12-1.8 as template and primer, and 4 μM dTTP, 1 μCi/100 μl [^3 H]dTTP as substrate) and the mixture was incubated at 37° C. for 1 hour and, then, immediately cooled on ice. Using a cell harvester, the reaction mixture was transferred to a DEAE-filter mat (LKB-Pharmacia). Then, using the wash line of the cell harvester, the cells were washed twice with 5% Na2 HPO4 /H2 O and once with water and dried at 95° C. for 15 minutes. […] The inhibitory activity was expressed in percent inhibition relative to the uptake on water or DMSO control.

HIV (HTLV-IIIB strain) = experiment: microbe, parasite or virus in culture; type: cell-based; details: Human immunodeficiency virus 1, IIIB, MT4, 120 h
Method: The anti-HIV activity of each of the compounds produced in Examples was assayed by the following procedures. […] On the other hand, the test compound was diluted with the above culture medium to predetermined concentrations and distributed in 50 μl aliquots into a 96-well microtiter plate. Then, d suspension of MT-4 cells was added in 100 μl aliquots (3.5×10^4 cells per well) and then the above HIV-containing supernatant diluted with the above culture medium was added, 50 μl (60 pfu (plaque forming units)) per well. (2) The plate was incubated in a CO2 incubator at 37° C. for 5 days. Then, 30 μl/well of 3-(4,5-dimethyl thiazol-2-yl)-2,5-diphenyltetrazolium bromide (MTT) (5 mg/ml PBS) was added and the incubation was further continued for 1 hour. The surviving cells reducing MTT yield precipitation of formazan. Therefore, 150 μl portions of the culture supernatant were removed from all wells and, instead, 150 μl of a solution (10% Triton X-100 and 0.4% (v/v) HCl-added isopropyl alcohol) was added. The plate was shaken on a plate mixer to dissolve the formazan.

[2] = cytotoxicity in MT-4 cells (MTT, culture medium in place of HIV); type: cell-based; details: human
Method: The anti-HIV activity of each of the compounds produced in Examples was assayed by the following procedures. (1) Human T cell line MOLT-4 clone 8 persistently infected by HIV (HTLV-IIIB strain) was cultured in an RPMI-1640 medium supplemented with 10% fetal calf serum, the culture supernatant was filtered, and the titer of virus was determined; the culture supernatant was stored at -80° C. On the other hand, the test compound was diluted with the above culture medium to predetermined concentrations and distributed in 50 μl aliquots into a 96-well microtiter plate. Then, d suspension of MT-4 cells was added in 100 μl aliquots (3.5×10^4 cells per well) and then the above HIV-containing supernatant diluted with the above culture medium was added, 50 μl (60 pfu (plaque forming units)) per well. (2) The plate was incubated in a CO2 incubator at 37° C. for 5 days. Then, 30 μl/well of 3-(4,5-dimethyl thiazol-2-yl)-2,5-diphenyltetrazolium bromide (MTT) (5 mg/ml PBS) was added and the incubation was further continued for 1 hour. The surviving cells reducing MTT yield precipitation of formazan. Therefore, 150 μl portions of the culture supernatant were removed from all wells and, instead, 150 μl of a solution (10% Triton X-100 and 0.4% (v/v) HCl-added isopropyl alcohol) was added. The plate was shaken on a plate mixer to dissolve the formazan. The OD of formazan was measured with a microreader at 560 nm arid 690 nm (reference wavelength) and the result was compared with that of control.
The cytotoxicity of each of the compounds produced in Examples was assayed. In place of the HIV-containing supernatant (the virus suspension) in (1) in Test Example 1, 50 μl of the culture medium was added to each well, and the cytotoxicity was determined in the same manner as that for (2) in Test Example 1.

[3] = MT-4 cells, 60 pfu HIV per well, 37° C., 5 days, MTT, Tables 1 and 2, read-out: EC50
[4] = MT-4 cells, no virus, 37° C., 5 days, MTT, Table 3, read-out: CC50

Row | SMILES | IC50 [1] [µM] | EC50 (HIV (HTLV-IIIB strain); [3]) [mg/L] | CC50 at 120 h [2, 4] [mg/L] | CC50 at 120 h ([2]; mt-4 cells) [mg/L] | EC50 (HIV (HTLV-IIIB strain)) [mg/L]
1 | CC(C)c1nc(C=O)n(C)c1Sc1cc(Cl)cc(Cl)c1 [Compound I-7, 5-(3,5-dichlorophenylthio)-4-isopropyl-1-methyl-1H-imidazole-2-carbaldehyde] | 131 | 0.13 (≈ 0.395 µM) | 10 to 100 (≈ 30.4 to 304 µM) | – | –
2 | CCn1c(CO)nc(C(C)C)c1Sc1cccc(F)c1 [Compound I-37, [1-ethyl-5-(3-fluorophenylthio)-4-isopropyl-1H-imidazol-2-yl]methanol] | 0.204 | 0.0005 (≈ 0.0017 µM) | 25 (≈ 84.9 µM) | – | –
3 | CC(C)c1nc(CO)n(CC2CC2)c1Sc1cc(Cl)cc(Cl)c1 [Compound I-30, [1-cyclopropylmethyl-5-(3,5-dichlorophenylthio)-4-isopropyl-1H-imidazol-2-yl]methanol] | 2.45 | 0.005 to 0.01 (≈ 0.0135 to 0.0269 µM) | 10 to 100 (≈ 26.9 to 269 µM) | – | –
4 | CC(C)c1nc(CO)n(Cc2cccs2)c1Sc1cc(Cl)cc(Cl)c1.Cl [Compound I-126, 5-(3,5-dichlorophenylthio)-2-hydroxymethyl-4-isopropyl-1-(2-thienylmethyl)-1H-imidazole hydrochloride] | 30.9 | 0.03 | – | 12.5 to 25 | –
5 | CC(C)c1nc(CCCOC(N)=O)n(CCOC(N)=O)c1Sc1cc(Cl)cc(Cl)c1 [Compound I-151, 1-(2-carbamoyloxyethyl)-2-(3-carbamoyloxypropyl)-5-(3,5-dichlorophenylthio)-4-isopropyl-1H-imidazole] | 6.1 | 0.0006 (≈ 0.00126 µM) | – | 50 to 100 (≈ 105 to 210 µM) | –
6 | CCCn1c(CO)nc(C(C)C)c1Sc1cc(Cl)cc(Cl)c1 [Compound I-26, [5-(3,5-dichlorophenylthio)-4-isopropyl-1-n-propyl-1H-imidazol-2-yl]methanol] | 2.53 | – | 10 to 100 (≈ 27.8 to 278 µM) | – | 0.004 to 0.008 (≈ 0.0111 to 0.0223 µM)
7 | CCn1c(CO)nc(C(C)C)c1Sc1cccc([N+](=O)[O-])c1 [Compound I-23, [1-ethyl-4-isopropyl-5-(3-nitrophenylthio)-1H-imidazol-2-yl]methanol] | 0.996 | 0.004 (≈ 0.0124 µM) | 25 (≈ 77.8 µM) | – | –
8 | CC(C)c1nc(CN(C)C)n(C)c1Sc1cc(Cl)cc(Cl)c1 [Compound I-78, 5-(3,5-dichlorophenylthio)-2-dimethylaminomethyl-4-isopropyl-1-methyl-1H-imidazole] | 129 | 1 (≈ 2.79 µM) | 1 to 10 (≈ 2.79 to 27.9 µM) | – | –
9 | CC(C)c1nc(COC(N)=O)n(C)c1Sc1cccc(Cl)c1 [Compound I-42, 2-carbamoyloxymethyl-5-(3-chlorophenylthio)-4-isopropyl-1-methyl-1H-imidazole] | 5 | – | – | 8 (≈ 23.5 µM) | 0.07 (≈ 0.206 µM)
10 | Cc1cc(C)cc(Sc2c(C(C)C)nc(C=NN)n2C)c1 [Compound I-11, 5-(3,5-dimethylphenylthio)-4-isopropyl-1-methyl-1H-imidazole-2-carbaldehyde hydrazone] | 54.6 | 0.25 (≈ 0.827 µM) | 1 to 10 (≈ 3.31 to 33.1 µM) | – | –
11 | CC(C)C(=O)c1nc(C(C)C)c(Sc2cc(Cl)cc(Cl)c2)n1C [Compound I-12, [5-(3,5-dichlorophenylthio)-4-isopropyl-1-methyl-1H-imidazol-2-yl] isopropyl ketone] | > 269 | 50 (≈ 135 µM) | 50 to 100 (≈ 135 to 269 µM) | – | –
12 | CC(C)c1nc(CC#N)n(C)c1Sc1cc(Cl)cc(Cl)c1 [Compound I-80a, [5-(3,5-dichlorophenylthio)-4-isopropyl-1-methyl-1H-imidazol-2-yl]acetonitrile] | 0.323 | 0.002 to 0.004 (≈ 0.00588 to 0.0118 µM) | 100 (≈ 294 µM) | – | –
13 | CC(Cn1c(COC(N)=O)nc(C(C)C)c1Sc1cc(Cl)cc(Cl)c1)OC(N)=O (stereo not drawn) [Compound I-152, 2-carbamoyloxymethyl-1-(2-carbamoyloxypropyl)-5-(3,5-dichlorophenylthio)-4-isopropyl-1H-imidazole] | 3.25 | < 0.008 | – | 12.5 to 25 (≈ 27.1 to 54.2 µM) | –
14 | Cc1cc(C)cc(Sc2c(C(C)C)nc(CO)n2C)c1 [Compound I-9, [5-(3,5-dimethylphenylthio)-4-isopropyl-1-methyl-1H-imidazol-2-yl]methanol] | 8.26 | 0.008 (≈ 0.0275 µM) | 10 (≈ 34.4 µM) | – | –
15 | CC(C)c1nc(CCOCc2ccccc2)n(CCO)c1Sc1cc(Cl)cc(Cl)c1 [Compound 130d, 2-(2-(2-benzyloxyethyl)-5-(3,5-dichlorophenylthio)-4-isopropyl-1H-imidazol-1-yl)ethanol] | > 215 | 0.5 to 1 (≈ 1.07 to 2.15 µM) | – | 6.3 (≈ 13.5 µM) | –
16 | CC(C)c1nc(CN)n(Cc2cccnc2)c1Sc1cc(Cl)cc(Cl)c1 [Compound I-94, 2-aminomethyl-5-(3,5-dichlorophenylthio)-4-isopropyl-1-(pyridin-3-yl)methyl-1H-imidazole] | 4.66 | 0.03 (≈ 0.0736 µM) | 12.5 to 25 (≈ 30.7 to 61.4 µM) | – | –
17 | Cc1cc(C)cc(Sc2c(C(C)C)nc(C=NO)n2C)c1 [Compound I-10, 5-(3,5-dimethylphenylthio)-4-isopropyl-1-methyl-1H-imidazole-2-carbaldehyde oxime] | > 330 | 1 (≈ 3.3 µM) | > 100 | – | –
18 | Cc1cc(C)cc(Sc2c(C(C)C)nc(C=O)n2C)c1 [Compound I-6, 5-(3,5-dimethylphenylthio)-4-isopropyl-1-methyl-1H-imidazole-2-carbaldehyde] | 127 | 0.03 to 0.06 (≈ 0.104 to 0.208 µM) | 10 (≈ 34.7 µM) | – | –
19 | CCCn1c(CO)nc(C(C)C)c1Sc1cccc(Cl)c1 [Compound I-29, [5-(3-chlorophenylthio)-4-isopropyl-1-n-propyl-1H-imidazol-2-yl]methanol] | 1.85 | 0.016 to 0.03 (≈ 0.0492 to 0.0923 µM) | 12.5 (≈ 38.5 µM) | – | –
20 | CCn1c(CO)nc(C(C)C)c1Sc1cc(F)cc(F)c1 [Compound I-36, [5-(3,5-difluorophenylthio)-1-ethyl-4-isopropyl-1H-imidazol-2-yl]methanol] | 0.576 | – | 10 to 100 (≈ 32 to 320 µM) | – | 0.002 (≈ 0.0064 µM)
21 | CC(C)c1nc(CCOC(N)=O)n(CCOC(N)=O)c1Sc1cc(Cl)cc(Cl)c1 [Compound I-147, 1,2-di-(2-carbamoyloxyethyl)-5-(3,5-dichlorophenylthio)-4-isopropyl-1H-imidazole] | 4.33 | 0.005 (≈ 0.0108 µM) | – | 50 to 100 (≈ 108 to 217 µM) | –
